# Measurements as given in ChEMBL document CHEMBL1149508, “From arylureas to biarylamides to aminoquinazolines: discovery of a novel, potent TRPV1 antagonist” (Bioorg Med Chem Lett, 2006).
# The source made the active and inactive calls. The calls are words filed in the database; no cut-off is given here.
# Key:
# [1] = molecular target: T1, Transient receptor potential cation channel subfamily V member 1 (Homo sapiens, UniProt Q8NER1); assay: Antagonist activity against capsaicin-activated human VR1 by FLIPR assay; type: functional
# T1 sequence (Q8NER1 whole entry): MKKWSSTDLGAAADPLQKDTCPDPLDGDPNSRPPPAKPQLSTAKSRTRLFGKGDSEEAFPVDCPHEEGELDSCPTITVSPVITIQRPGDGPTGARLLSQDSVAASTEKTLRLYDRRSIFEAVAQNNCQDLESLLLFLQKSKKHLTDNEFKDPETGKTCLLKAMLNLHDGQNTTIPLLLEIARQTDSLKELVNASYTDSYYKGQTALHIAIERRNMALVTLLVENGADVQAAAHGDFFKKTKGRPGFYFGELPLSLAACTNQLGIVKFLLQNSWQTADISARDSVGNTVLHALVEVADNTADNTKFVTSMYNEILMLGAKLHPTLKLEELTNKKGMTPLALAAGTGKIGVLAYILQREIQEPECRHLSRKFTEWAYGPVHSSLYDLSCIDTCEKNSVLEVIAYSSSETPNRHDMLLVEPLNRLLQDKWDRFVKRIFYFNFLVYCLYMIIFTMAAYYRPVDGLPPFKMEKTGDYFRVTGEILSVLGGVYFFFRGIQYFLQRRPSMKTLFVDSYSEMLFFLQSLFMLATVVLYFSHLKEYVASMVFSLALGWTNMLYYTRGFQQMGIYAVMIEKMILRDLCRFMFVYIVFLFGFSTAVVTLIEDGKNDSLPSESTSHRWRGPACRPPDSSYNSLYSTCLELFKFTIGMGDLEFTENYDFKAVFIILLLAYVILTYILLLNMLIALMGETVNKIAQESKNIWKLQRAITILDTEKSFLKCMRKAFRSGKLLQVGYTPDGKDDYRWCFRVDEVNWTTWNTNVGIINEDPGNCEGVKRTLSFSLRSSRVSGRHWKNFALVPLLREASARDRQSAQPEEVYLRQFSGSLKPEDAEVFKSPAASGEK
# [2] = molecular target: Transient receptor potential cation channel subfamily V member 1 (Rattus norvegicus, UniProt O35433); assay: Antagonist activity against low pH(5.0-5.5)-activated rat VR1; type: functional
# Chain of Transient receptor potential cation channel subfamily V member 1 (Rattus norvegicus, UniProt O35433) (O35433 whole entry): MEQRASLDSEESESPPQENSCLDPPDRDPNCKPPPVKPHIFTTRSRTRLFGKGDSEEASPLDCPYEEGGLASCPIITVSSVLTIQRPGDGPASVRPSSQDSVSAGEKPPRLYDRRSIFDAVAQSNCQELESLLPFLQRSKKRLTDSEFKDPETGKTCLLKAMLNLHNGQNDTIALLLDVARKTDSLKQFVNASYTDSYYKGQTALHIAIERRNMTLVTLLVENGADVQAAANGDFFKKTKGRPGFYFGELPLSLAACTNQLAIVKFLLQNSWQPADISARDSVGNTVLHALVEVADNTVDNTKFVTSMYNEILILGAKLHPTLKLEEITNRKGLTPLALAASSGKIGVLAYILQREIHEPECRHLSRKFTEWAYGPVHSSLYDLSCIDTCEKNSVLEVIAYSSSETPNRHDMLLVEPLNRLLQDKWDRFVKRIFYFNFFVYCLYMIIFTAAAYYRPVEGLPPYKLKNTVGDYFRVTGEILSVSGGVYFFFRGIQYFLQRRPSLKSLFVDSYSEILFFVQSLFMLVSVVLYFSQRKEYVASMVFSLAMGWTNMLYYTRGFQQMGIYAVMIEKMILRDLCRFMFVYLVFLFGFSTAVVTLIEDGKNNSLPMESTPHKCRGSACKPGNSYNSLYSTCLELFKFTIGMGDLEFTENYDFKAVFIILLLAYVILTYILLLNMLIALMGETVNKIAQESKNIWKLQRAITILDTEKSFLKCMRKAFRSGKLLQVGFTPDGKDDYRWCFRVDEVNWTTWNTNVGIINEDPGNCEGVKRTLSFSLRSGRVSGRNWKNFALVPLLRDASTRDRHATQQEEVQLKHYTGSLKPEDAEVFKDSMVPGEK
# [3] = Aqueous solubility at pH 7.4 by HTsol assay; type: physicochemical; conditions: buffer
# [4] = Half life in rat at 3 mg/kg, iv; type: ADME, organism-based; set-up: dose 3 mg/kg, route intravenous; conditions: in vivo
# [5] = Clearance in rat at 3 mg/kg, iv; type: ADME, organism-based; set-up: dose 3 mg/kg, route intravenous; conditions: in vivo
# [6] = Volume of distribution in rat at 3 mg/kg, iv; type: ADME, organism-based; set-up: dose 3 mg/kg, route intravenous; conditions: in vivo, read-out: Vdss
# [7] = Tmax in rat at 3 mg/kg, iv; type: ADME, organism-based; set-up: dose 3 mg/kg, route intravenous; conditions: in vivo
# [8] = Bioavailability in rat at 3 mg/kg, iv; type: ADME, organism-based; conditions: in vivo
# [9] = molecular target: T1, Transient receptor potential cation channel subfamily V member 1; assay: Agonist activity at human VR1 expressed in HEK293 cells upto 4 uM; type: functional, cell-based
# [10] = Bioavailability in rat; type: ADME, organism-based; conditions: in vivo
Structure (SMILES),IC50 [1],IC50 [2],other results
O=C(Nc1ccc(C(F)(F)F)cc1)c1ccc(-c2ncccc2C(F)(F)F)cc1[N+](=O)[O-],392 nM,222 nM,
CS(=O)(=O)N(c1cc(-c2ncccc2C(F)(F)F)ccc1C(=O)Nc1ccc(C(F)(F)F)cc1)S(C)(=O)=O,> 4000 nM,> 4000 nM,
Cc1ccc(NC(=O)c2ccc(-c3ncccc3C)cc2)cc1,2580 nM,> 4000 nM,
O=C(Nc1ccc(C(F)(F)F)cc1)c1ncc(-c2ncccc2C(F)(F)F)cn1,42 nM,60 nM,
Cc1cccnc1-c1ccc(C(=O)Nc2ccc(C(F)(F)F)cc2)nc1,1780 nM,1580 nM,
COc1cc(-c2ncccc2C(F)(F)F)ccc1C(=O)Nc1ccc(C(F)(F)F)cc1,> 4000 nM,1040 nM,
CC(C)(C)c1ccc(NC(=O)c2ccc(-c3ncccc3F)cc2)cc1,3 nM,1 nM,
CCS(=O)(=O)Nc1cccnc1-c1ccc(C(=O)Nc2ccc(C(C)(C)C)cc2)cc1,49 nM,4 nM,solubility [3]: 1 µg/mL
COc1ccc(NC(=O)c2ccc(-c3ncccc3C)cc2)cc1,> 4000 nM,> 4000 nM,
CC(C)(C)c1ccc(NC(=O)c2ccc(-c3ncccc3NS(=O)(=O)c3ccccc3)cc2)cc1,91 nM,166 nM,solubility [3]: 1 µg/mL
CC(C)(C)c1ccc(NC(=O)c2ccc(-c3ncccc3NS(=O)(=O)Cc3ccccc3)cc2)cc1,377 nM,159 nM,
Cc1nc(-c2ncccc2C(F)(F)F)ccc1C(=O)Nc1ccc(C(F)(F)F)cc1,259 nM,263 nM,
CN(C)Cc1cccnc1-c1ccc(C(=O)Nc2ccc(C(C)(C)C)cc2)cc1,746 nM,234 nM,solubility [3]: 50 µg/mL
Cc1cccnc1-c1ccc(C(=O)Nc2ccc(C(F)(F)F)cc2)cn1,624 nM,583 nM,
Cc1cc(-c2ncccc2C)ccc1C(=O)Nc1ccc(C(F)(F)F)cc1,> 4000 nM,> 4000 nM,
CC(C)(C)c1ccc(NC(=O)c2ccc(-c3ncccc3[N+](=O)[O-])cc2)cc1,5 nM,5 nM,
Cc1cccnc1-c1ccc(C(=O)Nc2ccc(Cl)cc2)cc1,1500 nM,2020 nM,
Cc1cccnc1-c1ccc(C(=O)Nc2ccc(F)cc2)cc1,> 4000 nM,> 4000 nM,
O=C(Nc1ccccc1)c1ccc(-c2ncccc2C(F)(F)F)cc1,> 4000 nM,,
O=C(Nc1ccc(C(F)(F)F)cc1)c1ccc(-c2ncccc2C(F)(F)F)cc1Cl,> 4000 nM,2400 nM,
CCCNCc1cccnc1-c1ccc(C(=O)Nc2ccc(C(C)(C)C)cc2)cc1,4300 nM,639 nM,
O=C(Nc1ccc(C(F)(F)F)cc1)c1ccc(-c2ncccc2C(F)(F)F)nc1,60 nM,56 nM,

Structure (SMILES),IC50 [1],IC50 [2],other results
CC(C)(C)c1ccc(NC(=O)c2ccc(-c3ncccc3-c3nnn[nH]3)cc2)cc1,> 4000 nM,> 4000 nM,
CC(C)(C)c1ccc(NC(=O)c2ccc(-c3ncccc3NS(C)(=O)=O)cc2)cc1,152 nM,35 nM,
CCCCS(=O)(=O)Nc1cccnc1-c1ccc(C(=O)Nc2ccc(C(C)(C)C)cc2)cc1,162 nM,141 nM,
CC(C)(C)c1ccc(NC(=O)c2ccc(-c3ncccc3NO)cc2)cc1,49 nM,5 nM,
Cc1cccnc1-c1ccc(C(=O)Nc2ccc(OC(F)(F)F)cc2)cc1,974 nM,896 nM,
Cc1cccnc1-c1ccc(C(=O)Nc2ccc(C(C)C)cc2)cc1,73 nM,43 nM,
Cc1nnc(-c2cccnc2-c2ccc(C(=O)Nc3ccc(C(C)(C)C)cc3)cc2)o1,387 nM,34 nM,
CC(C)(C)c1ccc(NC(=O)c2ccc(-c3ncccc3N(S(C)(=O)=O)S(C)(=O)=O)cc2)cc1,0.8 nM,0.4 nM,solubility [3]: 1 µg/mL
CC(C)(C)c1ccc(NC(=O)c2ccc(-c3ccccn3)cc2)cc1,11 nM,8 nM,
CC(C)(C)c1ccc(NC(=O)c2ccc(-c3ncccc3NC3CCCC3)cc2)cc1,190 nM,44 nM,
CC(C)(C)c1ccc(NC(=O)c2ccc(-c3ncccc3C(=N)N)cc2)cc1,> 4000 nM,> 4000 nM,
CC(C)(C)c1ccc(NC(=O)c2ccc(-c3ncccc3Cl)cc2)cc1,8 nM,2 nM,
O=C(Nc1ccc(C(F)(F)F)cc1)c1ccc(-c2ncccc2C(F)(F)F)cc1F,131 nM,348 nM,
FC(F)(F)c1ccc(Nc2ncnc3cc(-c4ncccc4C(F)(F)F)ccc23)cc1 [NGD-8243],,1.4 nM,half-life [4]: 8.1 h; clearance [5]: 23 mL/min/kg; Vd [6]: 12.5 L/kg; Tmax [7]: 0.7 h; bioavailability [8]: 99%; Activity [9]: inactive
Cc1cccnc1-c1ccc(C(=O)Nc2ccc(C(F)(F)F)cc2)cc1,65 nM,81 nM,
O=C(Nc1ccc(C(F)(F)F)cn1)c1ccc(-c2ncccc2C(F)(F)F)cc1,24 nM,65 nM,
CCN(CC)Cc1cccnc1-c1ccc(C(=O)Nc2ccc(C(C)(C)C)cc2)cc1,1410 nM,334 nM,
CC(C)(C)c1ccc(NC(=O)c2ccc(-c3ncccc3CO)cc2)cc1,168 nM,88 nM,
Cc1cccnc1-c1ccc(C(=O)Nc2ccc(C(C)(C)C)cc2)cc1,,9 nM,
Cc1cc(C(=O)Nc2ccc(C(F)(F)F)cc2)ccc1-c1ncccc1C,233 nM,190 nM,
CCCNc1cccnc1-c1ccc(C(=O)Nc2ccc(C(C)(C)C)cc2)cc1,158 nM,37 nM,
CCCOc1cccnc1-c1ccc(C(=O)Nc2ccc(C(C)(C)C)cc2)cc1,62 nM,20 nM,

Structure (SMILES),IC50 [1],IC50 [2],other results
CC(C)(C)c1ccc(NC(=O)c2ccc(-c3ncccc3CN3CCCC3)cc2)cc1,1530 nM,196 nM,
CC(C)(C)c1ccc(NC(=O)c2ccc(-c3ncccc3C(=O)O)cc2)cc1,> 4000 nM,560 nM,solubility [3]: 104 µg/mL
CS(=O)(=O)Nc1cc(-c2ncccc2C(F)(F)F)ccc1C(=O)Nc1ccc(C(F)(F)F)cc1,1020 nM,722 nM,
O=C(Nc1ccc(C(F)(F)F)cc1)c1ccc(-c2ncccc2C(F)(F)F)cc1,,26 nM,Activity [9]: inactive
CN(c1cccnc1-c1ccc(C(=O)Nc2ccc(C(C)(C)C)cc2)cc1)S(C)(=O)=O,39 nM,9 nM,solubility [3]: 1 µg/mL
C[C@@H]1CN(c2ncccc2C(F)(F)F)CCN1C(=O)Nc1ccc(C(F)(F)F)cc1,17 nM,11 nM,half-life [4]: 7.2 h; clearance [5]: 39 mL/min/kg; Vd [6]: 12 L/kg; Tmax [7]: 0.5 h; bioavailability [8]: 27%; Activity [9]: inactive
O=C(Nc1ccc(C(F)(F)F)cc1)c1ccc(-c2ncccc2Cl)cc1,58 nM,,
CC(C)(C)c1ccc(NC(=O)c2ccc(-c3ncccc3C(F)(F)F)cc2)cc1,6 nM,4 nM,bioavailability [10]: 2%
O=C(Nc1ccc(C(F)(F)F)cc1)c1ccc(-c2ncccc2C(F)(F)F)nc1O,> 4000 nM,764 nM,
Cc1cccnc1-c1ccc(C(=O)Nc2ccc(Br)cc2)cc1,189 nM,366 nM,
CC(=O)Nc1cccnc1-c1ccc(C(=O)Nc2ccc(C(C)(C)C)cc2)cc1,1110 nM,290 nM,
Cc1cc(C(=O)Nc2ccc(C(F)(F)F)cc2)ccc1-c1ncccc1C(F)(F)F,257 nM,192 nM,
CC(C)(C)c1ccc(NC(=O)c2ccc(-c3ncccc3-c3nnco3)cc2)cc1,91 nM,59 nM,
O=C(Nc1ccc(C(F)(F)F)cc1)c1ccc(-c2ncccc2C(F)(F)F)cc1O,43 nM,36 nM,
N#Cc1ccc(NC(=O)c2ccc(-c3ncccc3C(F)(F)F)cc2)cc1,417 nM,1300 nM,
Nc1cc(-c2ncccc2C(F)(F)F)ccc1C(=O)Nc1ccc(C(F)(F)F)cc1,93 nM,103 nM,
CC(C)(C)c1ccc(NC(=O)c2ccc(-c3ncccc3-c3ncc[nH]3)cc2)cc1,3670 nM,694 nM,
Cc1cccnc1-c1ccc(C(=O)Nc2ccccn2)cc1,> 4000 nM,> 4000 nM,
CC(C)(C)c1ccc(NC(=O)c2ccc(-c3ncccc3C#N)cc2)cc1,30 nM,13 nM,
CC(C)(C)c1ccc(NC(=O)c2ccc(-c3ncccc3N)cc2)cc1,123 nM,325 nM,
